Test system: Hydra vulgaris
Format: in vivo
Settings: results in 100% hydra mortality in 92 h
Protocol: Hydra vulgaris were obtained from Environment Canada (Montreal, Qc) and maintained at 18° C. The hydra classification method (Wilby, O. K., Tesh, J. M., & Shore, P. R., 1990) was used with modification to rate morphology of the adult hydra as an indicator of solution toxicity. In this assay, the scoring of hydra morphology is objective and repeatable with representation in detail in previous literature. The assay included monitoring times at shorter intervals during the first two days (0, 4, 20, and 28 h) and 24 h intervals for the last three days (44, 68, and 92 h). Solutions were not changed during testing. The hydra morphological response was scored and recorded after exposure of toxin with and without sorbent treatment. Mature and non-budding hydra in similar sizes were chosen for testing in order to minimize differences between samples. Controls for this experiment included hydra media. […] The score or average toxicity rating was determined by calculating the average score for morphological changes for a certain group at a specific time point.
FIG. 2 is a depiction of the hydra morphology scale by Wilby (1988): The scale is graded from 0-10, where 10 represents a normal living hydra and 0 represents a disintegrated hydra. The physiologic conditions of hydra were assessed with a dissecting microscope.

C[C@H]1CCCC(=O)CCC/C=C/c2cc(O)cc(O)c2C(=O)O1 [ZEN, zearalenone]
minimal effective concentration (MEC): 4 ppm
